Test results reported in article PMC7822874, “Chemoprotective antimalarials identified through quantitative high-throughput screening of Plasmodium blood and liver stage parasites” (Scientific Reports, 2021).
Read-outs that look alike come from different tables or passages of the source. Each block holds one compound with its values, some of them ahead of it.

Columns and labels:
[1] = system: P. berghei-ANKA-GFP-LucCON liver stage parasites in HepG2-A16-CD81EGFP cells; assay: P. berghei liver stage Pb-Luc assay, Method 1 (UCSD, 1536-well); assay type: cell-based, Plasmodium berghei; conditions: for activity at 1 µM / activity at 3 µM / AC50: Plasmodium berghei; for activity at 1 µM / activity at 3 µM: 48 h, average of 2 wells on a 1536 well plate; for activity at 1 µM: 1 uM (compounds provided at 10 mM); for activity at 3 µM: 3 uM (compounds provided at 10 mM); for Max Resp (signal direction of the dose response) / AC50: Method 1; for Max Resp (signal direction of the dose response): Decrease = decreasing P. berghei viability with dose, Increase = increasing signal, Inactive = no dose response
[2] = in vitro; conditions: human, hepg2 cells
[3] = system: Plasmodium falciparum Dd2 asexual blood stage parasites; assay: microbe, parasite or virus in culture; design: species or system Plasmodium falciparum Dd2 in human erythrocytes; single determination (one 11-point concentration-response curve); conditions: Plasmodium falciparum, DD2, Erythrocyte, 72 h; read-out: AC50
[4] = in vitro; conditions: human
[5] = system: HepG2; conditions: human, hepg2 cells, 48 h
[6] = column 11, read-out: Pb-Luc (P. berghei liver stage), % of control, lower concentration, first repeat
[7] = column 12, read-out: Pb-Luc (P. berghei liver stage), % of control, lower concentration, second repeat
[8] = column 8, read-out: Pb-Luc (P. berghei liver stage), % of control, higher concentration, first repeat
[9] = column 9, read-out: Pb-Luc (P. berghei liver stage), % of control, higher concentration, second repeat
[10] = HepG2-A16-CD81EGFP cells, uninfected

SMILES: COc1ccc2nc3cc(Cl)ccc3c(Nc3cc(C(C)C)c(O)cc3C)c2c1 [MLS000737404-01]
- activity at 1 µM [1, 6]: 113%
- activity at 1 µM [1, 7]: 97%
- activity at 3 µM [1, 8]: 61%
- activity at 3 µM [1, 9]: 53%
- CC50 at 48 h [2]: 43.2 µM
- AC50 [3]: 0.266 µM
- viability at 48 h, 1 µM [4, 10]: 112%
- viability at 48 h, 3 µM [4, 10]: 95%
- Log AC50 (M) [5]: -4.3643 M

SMILES: CN1C2CCC1/C(=C/c1ccccn1)C(=O)/C2=C\c1ccccn1 [MLS000702810-01]
- Max Resp (signal direction of the dose response) [1]: Decrease
- AC50 ([1]; Hill fit, 50% of maximum activity response, read-out: AC50): 0.794 µM
- AC50 ([1]; log10 of molar AC50 from Hill fit, read-out: Log AC50 (converted)): 0.794 µM
- CC50 at 48 h [2]: 15.3 µM
- viability at 48 h [4]: 76.4%
- viability at 48 h, 1 µM [4]: 76.4%
- Log AC50 (M) [5]: -4.8143 M

SMILES: N=c1c2c(n(Cc3ccc(F)cc3)c3c1CCC3)CCCC2 [MLS000856097-01]
- activity at 1 µM [1, 6]: 60%
- activity at 1 µM [1, 7]: 59%
- activity at 3 µM [1, 8]: 19%
- activity at 3 µM [1, 9]: 15%
- CC50 at 48 h [2]: 17.2 µM
- AC50 [3]: 2.99 µM
- viability at 48 h, 1 µM [4, 10]: 105%
- viability at 48 h, 3 µM [4, 10]: 81%
- Log AC50 (M) [5]: -4.7643 M

- Log AC50 (M) [5]: -5.5643 M
SMILES: c1ccc(-c2nc(N3CCCCCC3)c3ccccc3n2)nc1 [MLS000042263-01]
- CC50 at 48 h [2]: 2.73 µM
- AC50 [3]: 1.68 µM
- viability at 48 h, 1 µM [4, 10]: 102%
- viability at 48 h, 3 µM [4, 10]: 88%

- Log AC50 (M) [5]: -4.6143 M
SMILES: CN1CCN(c2ccc(Nc3ccnc4cc(Cl)ccc34)cc2)CC1 [MLS001203414-01]
- CC50 at 48 h [2]: 24.3 µM
- AC50 [3]: 0.188 µM
- viability at 48 h, 1 µM [4, 10]: 86%
- viability at 48 h, 3 µM [4, 10]: 90%

SMILES: CCCN(CCC)CCCN=C(S)Nc1ccc2nc(N3CCCC3)cc(C)c2c1 [MLS000730709-01]
- activity at 1 µM [1, 6]: 141%
- activity at 1 µM [1, 7]: 128%
- activity at 3 µM [1, 8]: 67%
- activity at 3 µM [1, 9]: 66%
- CC50 at 48 h [2]: 43.2 µM
- viability at 48 h, 1 µM [4, 10]: 112%
- viability at 48 h, 3 µM [4, 10]: 103%
- Log AC50 (M) [5]: -4.3643 M

SMILES: ClC(Cl)(Cl)c1nc2ccccc2n2nncc12 [MLS001171504-01]
- activity at 1 µM [1, 6]: 113%
- activity at 1 µM [1, 7]: 83%
- activity at 3 µM [1, 8]: 87%
- activity at 3 µM [1, 9]: 102%
- CC50 at 48 h [2]: 43.2 µM
- AC50 [3]: 2.11 µM
- viability at 48 h, 1 µM [4, 10]: 106%
- viability at 48 h, 3 µM [4, 10]: 95%
- Log AC50 (M) [5]: -4.3643 M

SMILES: Cc1cccc(NC2=C/C(=N\S(=O)(=O)c3cccs3)c3ccccc3C2=O)c1 [MLS000585840-01]
- activity at 1 µM [1, 6]: 90%
- activity at 1 µM [1, 7]: 90%
- activity at 3 µM [1, 8]: 37%
- activity at 3 µM [1, 9]: 41%
- CC50 at 48 h [2]: 34.3 µM
- AC50 [3]: 0.168 µM
- viability at 48 h, 1 µM [4, 10]: 113%
- viability at 48 h, 3 µM [4, 10]: 95%
- Log AC50 (M) [5]: -4.4643 M

- Log AC50 (M) [5]: -4.8643 M
SMILES: CCn1c(/C=C/c2cc(Br)ccc2O)nc2ccccc2c1=O [MLS001205008-01]
- CC50 at 48 h [2]: 13.7 µM
- AC50 [3]: 4.22 µM
- viability at 48 h, 1 µM [4, 10]: 104%
- viability at 48 h, 3 µM [4, 10]: 101%

- Log AC50 (M) [5]: -4.3143 M
SMILES: CC(=O)Nc1ccc(NC2=Nc3ccccc3N3C2=Nc2c(c(C)nn2-c2ccccc2)C3c2ccccc2)cc1 (stereo not shown) [MLS000555438-01]
- CC50 at 48 h [2]: 48.5 µM
- AC50 [3]: 6.68 µM
- viability at 66 h [4, 10]: 95.3%

- Log AC50 (M) [5]: -4.3643 M
SMILES: O=C(NC(c1ccc(Cl)cc1)c1cc(Cl)c2cccnc2c1O)c1cccnc1 (stereo not shown) [MLS000573463-01]
- CC50 at 48 h [2]: 43.2 µM
- AC50 [3]: 5.96 µM
- viability at 48 h, 1 µM [4, 10]: 84%
- viability at 48 h, 3 µM [4, 10]: 68%

- Log AC50 (M) [5]: -4.3643 M
SMILES: OC(c1cc(-c2ccc(C(F)(F)F)cc2)nc(C(F)(F)F)c1)C1CCCCN1 (stereo not shown) [MLS000757046-01]
- CC50 at 48 h [2]: 43.2 µM
- AC50 [3]: 0.15 µM
- viability at 48 h, 1 µM [4, 10]: 109%
- viability at 48 h, 3 µM [4, 10]: 105%

SMILES: Cc1cc(O)c(-c2cc(C(=O)Nc3sc4c(c3C(=O)NCc3ccco3)CCC4)[nH]n2)cc1C [MLS000331999-01]
- Max Resp (signal direction of the dose response) [1]: Inactive
- CC50 at 48 h [2]: 34.3 µM
- viability at 66 h [4, 10]: 106%
- Log AC50 (M) [5]: -4.4643 M

- Log AC50 (M) [5]: -4.3643 M
SMILES: COc1cc2nc(Nc3ccc(C)c(C)c3)nc(N)c2cc1OC [NCGC00107261-01]
- CC50 at 48 h [2]: 43.2 µM
- AC50 [3]: 0.75 µM
- viability at 48 h, 1 µM [4, 10]: 107%
- viability at 48 h, 3 µM [4, 10]: 97%

SMILES: CCOc1ccc(Nc2nc(NCC3CCCO3)c3ccccc3n2)cc1 (stereo not shown) [MLS000724397-01]
- CC50 at 48 h [2]: 43.2 µM
- AC50 [3]: 1.88 µM
- viability at 48 h, 1 µM [4, 10]: 104%
- viability at 48 h, 3 µM [4, 10]: 83%
- Log AC50 (M) [5]: -4.3643 M
